Our source for the IC50 values is patent US12643892B2, “Pyridazinone compounds for the treatment of neuromuscular diseases” (Edgewise Therapeutics, Inc., priority 2020, dated 2026).

The structures appear in SMILES notation. Some results are limits rather than exact numbers.

The test deals with Skeletal Myofibril ATPase (Rabbit Psoas myofibrils). Kind of test: Skeletal Myofibril ATPase Assay. In kind it is biochemical. The settings on record: PK/LDH-coupled NADH absorbance at 340 nm. The protocol: Overview: Myosin ATPase activity was assessed by using a coupled reaction system, in which ADP generated by the myosin ATPase function was coupled to the disappearance of NADH through the pyruvate kinase/lactate dehydrogenase (PK-LDH) system. Myosin ATPase activity produces ADP, which was used as a substrate for PK to produce pyruvate and regenerate ATP. The pyruvate was then used as a substrate by LDH to oxidize NADH to NAD+. The rate of the reaction was monitored through the time-dependent disappearance of NADH using absorbance at 340 nm. Inhibition of ATPase activity by the assayed compounds was indicated by a reduced rate of NADH loss, relative to vehicle-treated controls, over the experimental time window. To assess the selectivity of the assayed compounds for skeletal myofibrils, the compounds were counter-screened in cardiac myofibrils.
Materials: The following stock solutions and reagents were used in the Skeletal Myofibril ATPase Assay:
Stock Solutions of pCa buffer. Combine PIPES, CaCl2, and EGTA solutions with 70 mL of water. Adjust pH to 7.0 and bring final volume to 100 mL.
Buffer A & Buffer B. Buffers were stored on ice until use.
Skeletal Myofibril ATPase Assay Procedure: BSA, ATP, NADH, PEP, and DTT solutions were thawed at room temperature, then transferred to ice. Pellet-frozen myofibrils (approximately twice the required volume) were transferred into a sufficiently large tube and capped. Myofibrils were thawed by rolling in a water bath for approximately 15 min at room temperature and cooled on ice. Buffers A and B were prepared by adjusting volumes as necessary for required number of wells and stored on ice. 0.5 μL of the compounds to be assayed were added into wells of a 384-well plate. Buffers A and B were mixed by inversion immediately prior to use, then 25 μL of each was dispensed using a Multidrop dispenser (Buffer A first, then Buffer B). The absorbance within the wells was measured at 340 nm, using a kinetic protocol in which the wells are read every 1.5-2 min for 1 h. The reaction rate was qualitatively assessed by subtracting the minimum absorbance value from the maximum value for each well, using either the SoftMax Pro plate reader software or a spreadsheet program such as Excel. Using GraphPad Prism 8.0, the data was normalized, with 100% activity defined as the absorbance change in the 1% DMSO vehicle wells and 0% assigned to no change in absorbance over the course of the experiment. The normalized data were fit to a variable-slope four-parameter logistic model, constraining the bottom to be 0 or greater. Compounds of Table 1 to 3 were tested and results of the assay appear in Table 4 herein. A=IC50 is less than or equal to 10 μM; B=IC50 is greater than 10 μM and less than 100 μM; C=IC50 is greater than 100 μM.
Turning to `CC(C)NC(=O)Cn1nc(-c2cccs2)ccc1=O` [Compound 49, N-isopropyl-2-(6-oxo-3-(thiophen-2-yl)pyridazin-1(6H)-yl)acetamide], the half-maximal inhibitory concentration (IC50) – broadly, the concentration at which inhibition is half-maximal – is more than 100 µM.

On to `O=c1ccc(-n2cncn2)nn1Cc1cccc(Cl)c1` [Compound 78, 2-(3-chlorobenzyl)-6-(1H-1,2,4-triazol-1-yl)pyridazin-3(2H)-one], for which the IC50 lay in the range of 10 to 100 µM.

Turning to `CCNC(=O)Cn1nc(-c2nc(-c3ccc(F)c(F)c3)no2)ccc1=O` [Compound 8, 2-(3-(3-(3,4-difluorophenyl)-1,2,4-oxadiazol-5-yl)-6-oxopyridazin-1(6H)-yl)-N-ethylacetamide], the half-inhibitory concentration (IC50) is not above 10 µM.

On to `COCCn1nc(-c2nc(-c3ccc(F)c(F)c3)no2)ccc1=O` [Compound 75, 6-(3-(3,4-difluorophenyl)-1,2,4-oxadiazol-5-yl)-2-(2-methoxyethyl)pyridazin-3(2H)-one], for which the concentration for half-maximal inhibition (IC50) was in the range of 10 to 100 µM.

Regarding `Cc1cccc(-c2noc(-c3ccc(=O)n(Cc4cncnc4)c3)n2)c1` [Compound 105, 1-(pyrimidin-5-ylmethyl)-5-(3-(m-tolyl)-1,2,4-oxadiazol-5-yl)pyridin-2(1H)-one], the concentration for half-maximal inhibition (IC50) is not above 10 µM.

In turn, `CCNC(=O)Cn1nc(-c2nc(-c3cccc(Cl)c3)no2)ccc1=O` [Compound 14, 2-(3-(3-(3-chlorophenyl)-1,2,4-oxadiazol-5-yl)-6-oxopyridazin-1(6H)-yl)-N-ethylacetamide] gave an IC50 not above 10 µM.

Take `CCNC(=O)Cn1nc(-c2nc(-c3cccc(Cl)c3F)no2)ccc1=O` [Compound 3, 2-(3-(3-(3-chloro-2-fluoropheny)-1,2,4-oxadiazol-5-yl)-6-oxopyridazin-1(6H)-yl)-N-ethylacetamide]: the half-maximal inhibitory concentration (IC50) was not above 10 µM.

The compound `O=c1ccc(-c2nc(-c3ccc(Cl)cc3)no2)cn1Cc1cccnc1` [Compound 125, 5-(3-(4-chlorophenyl)-1,2,4-oxadiazol-5-yl)-1-(pyridin-3-ylmethyl)pyridin-2(1H)-one] came in with an IC50 of more than 120 µM.

The compound `O=c1ccc(-c2nc(-c3ccc(Cl)cc3)no2)cn1Cc1ccc(Cl)cc1` [Compound 122, 1-(4-chlorobenzyl)-5-(3-(4-chlorophenyl)-1,2,4-oxadiazol-5-yl)pyridin-2(1H)-one] displayed a 50% inhibitory concentration (IC50) of more than 120 µM.

The compound `CCNC(=O)Cn1nc(-c2nnc(-c3cccc(Cl)c3)s2)ccc1=O` [Compound 24, 2-(3-(5-(3-chlorophenyl)-1,3,4-thiadiazol-2-yl)-6-oxopyridazin-1(6H)-yl)-N-ethylacetamide] displayed a concentration for half-maximal inhibition (IC50) not above 10 µM.

In turn, `Cc1ccc(-c2ccc(=O)n(CC(=O)NC3CCCCC3)n2)s1` [Compound 44, N-cyclohexyl-2-(3-(5-methylthiophen-2-yl)-6-oxopyridazin-1(6H)-yl)acetamide] showed a half-maximal inhibitory concentration (IC50) of more than 100 µM.

As for `O=c1ccc(-c2nc(-c3ccccc3)no2)cn1Cc1cccnc1` [Compound 107, 5-(3-phenyl-1,2,4-oxadiazol-5-yl)-1-(pyridin-3-ylmethyl)pyridin-2(1H)-one], the concentration for half-maximal inhibition (IC50) was in the range of 10 to 100 µM.

In the case of `Cc1noc(-c2ccc(=O)n(Cc3ccc(F)cc3)n2)n1` [Compound 69, 2-(4-fluorobenzyl)-6-(3-methyl-1,2,4-oxadiazol-5-yl)pyridazin-3(2H)-one], the IC50 lay in the range of 10 to 100 µM.

In turn, `Cn1cnc(-c2ccc(=O)n(CC(=O)NCc3ccccc3Cl)n2)c1` [Compound 55, N-(2-chlorobenzyl)-2-(3-(1-methyl-1H-imidazol-4-yl)-6-oxopyridazin-1(6H)-yl)acetamide] yielded a concentration for half-maximal inhibition (IC50) of more than 100 µM.

On to `Cn1cc(-c2ccc(=O)n(CC(=O)NCc3ccccc3Cl)n2)cn1` [Compound 54, N-(2-chlorobenzyl)-2-(3-(1-methyl-1H-pyrazol-4-yl)-6-oxopyridazin-1(6H)-yl)acetamide], for which the IC50 fell in the range of 10 to 100 µM.

As to `O=c1ccc(-c2cccs2)nn1Cc1cccc(Cl)c1` [Compound 56, 2-(3-chlorobenzyl)-6-(thiophen-2-yl)pyridazin-3(2H)-one], the IC50 was not above 10 µM.

In turn, `COc1cccc(-c2noc(-c3ccc(=O)n(Cc4cccnc4)c3)n2)c1` [Compound 101, 5-(3-(3-methoxyphenyl)-1,2,4-oxadiazol-5-yl)-1-(pyridin-3-ylmethyl)pyridin-2(1H)-one] returned a concentration for half-maximal inhibition (IC50) not above 10 µM.

In turn, `Cc1ccc(-c2noc(-c3ccc(=O)n(Cc4cccc(F)c4)n3)n2)cc1` [Compound 71, 2-(3-fluorobenzyl)-6-(3-(p-tolyl)-1,2,4-oxadiazol-5-yl)pyridazin-3(2H)-one] came in with a half-inhibitory concentration (IC50) of more than 100 µM.

Turning to `CC(c1cncc(F)c1)n1cc(-c2nc(-c3cccc(Cl)c3)no2)ccc1=O` (stereo not shown) [Compound 117, 5-(3-(3-chlorophenyl)-1,2,4-oxadiazol-5-yl)-1-(1-(5-fluoropyridin-3-yl)ethyl)pyridin-2(1H)-one], the IC50 was more than 120 µM.

Compound `CCNC(=O)Cn1nc(-c2nc(-c3cccc(C(F)(F)F)c3)no2)ccc1=O` [Compound 11, N-ethyl-2-(6-oxo-3-(3-(3-(trifluoromethyl)phenyl)-1,2,4-oxadiazol-5-yl)pyridazin-1(6H)-yl)acetamide] yielded a half-inhibitory concentration (IC50) not above 10 µM.

`O=C(Cn1nc(-c2cccs2)ccc1=O)Nc1ccccc1Cl` [Compound 37, N-(2-chlorophenyl)-2-(6-oxo-3-(thiophen-2-yl)pyridazin-1(6H)-yl)acetamide] had a 50% inhibitory concentration (IC50) of 10 to 100 µM.

On to `CCCNC(=O)Cn1nc(-c2nc(-c3cccnc3)no2)ccc1=O` [Compound 50, 2-(6-oxo-3-(3-(pyridin-3-yl)-1,2,4-oxadiazol-5-yl)pyridazin-1(6H)-yl)-N-propylacetamide], for which the IC50 fell in the range of 10 to 100 µM.

As to `CCNC(=O)Cn1nc(-c2nc(-c3cncc(C(F)(F)F)c3)no2)ccc1=O` [Compound 10, N-ethyl-2-(6-oxo-3-(3-(5-(trifluoromethyl)pyridin-3-yl)-1,2,4-oxadiazol-5-yl)pyridazin-1(6H)-yl)acetamide], the concentration for half-maximal inhibition (IC50) is not above 10 µM.

`O=c1ccc(-c2nc(-c3ccc(Cl)cc3)no2)cn1Cc1ccc(Cl)c(Cl)c1` [Compound 124, 5-(3-(4-chlorophenyl)-1,2,4-oxadiazol-5-yl)-1-(3,4-dichlorobenzyl)pyridm-2(1H)-one] returned an IC50 of more than 120 µM.

`Cc1cccc(-c2noc(-c3ccc(=O)n(Cc4cccnc4)c3)n2)c1` [Compound 109, 1-(pyridin-3-ylmethyl)-5-(3-(m-tolyl)-1,2,4-oxadiazol-5-yl)pyridin-2(1H)-one] gave a half-inhibitory concentration (IC50) of 10 to 100 µM.

Compound `Cc1cccc(-c2noc(-c3ccc(=O)n(Cc4cccnc4)c3)n2)c1` [Compound 94, 1-(pyridin-3-ylmethyl)-5-(3-(m-tolyl)-1,2,4-oxadiazol-5-yl)pyridin-2(1H)-one] gave a half-maximal inhibitory concentration (IC50) not above 10 µM.

The compound `O=C(Cn1nc(-c2nc(-c3cccc(Cl)c3)no2)ccc1=O)NC1CCC1` [Compound 5, 2-(3-(3-(3-chlorophenyl)-1,2,4-oxadiazol-5-yl)-6-oxopyridazin-1(6H)-yl)-N-cyclobutylacetamide] showed a 50% inhibitory concentration (IC50) not above 10 µM.

With `CCCCn1nc(-c2nc(-c3ccc(F)cc3)no2)ccc1=O` [Compound 76, 2-butyl-6-(3-(4-fluorophenyl)-1,2,4-oxadiazol-5-yl)pyridazin-3(2H)-one], the IC50 was not above 10 µM.

For the compound `Cc1cccc(-c2noc(-c3ccc(=O)n(Cc4ccc(OC(F)F)nc4)c3)n2)c1` [Compound 93, 1-((6-(difluoromethoxy)pyridin-3-yl)methyl)-5-(3-(m-tolyl)-1,2,4-oxadiazol-5-yl)pyridin-2(1H)-one], the IC50 was not above 10 µM.

In turn, `O=c1ccc(-c2nc(-c3ccccc3Cl)no2)cn1Cc1cccnc1` [Compound 110, 5-(3-(2-chlorophenyl)-1,2,4-oxadiazol-5-yl)-1-(pyridin-3-ylmethyl)pyridin-2(1H)-one] came in with an IC50 of 10 to 100 µM.

The compound `Cc1ccc(-c2ccc(=O)n(CC(=O)N(C)c3ccccc3)n2)s1` [Compound 38, N-methyl-2-(3-(5-methylthiophen-2-yl)-6-oxopyridazin-1(6H)-yl)-N -phenylacetamide] came in with an IC50 of 10 to 100 µM.

For the compound `CCNC(=O)Cn1nc(-c2ncc(-c3cccc(Cl)c3)o2)ccc1=O` [Compound 27, 2-(3-(5-(3-chlorophenyl)oxazol-2-yl)-6-oxopyridazin-1(6H)-yl)-N-ethylacetamide], the concentration for half-maximal inhibition (IC50) was not above 10 µM.

`Cc1cccc(-c2noc(-c3ccc(=O)n(Cc4ccc(Cl)nc4)c3)n2)c1` [Compound 87, 1-((6-chloropyridin-3-yl)methyl)-5-(3-(m-tolyl)-1,2,4-oxadiazol-5-yl)pyridin-2(1H)-one] had a concentration for half-maximal inhibition (IC50) not above 10 µM.

In the case of `O=c1ccc(-c2nc(-c3ccsc3)no2)cn1Cc1ccccc1C(F)(F)F` [Compound 115, 5-(3-(thiophen-3-yl)-1,2,4-oxadiazol-5-yl)-1-(2-(trifluoromethyl)benzyl)pyridin-2(1H)-one], the half-inhibitory concentration (IC50) was more than 120 µM.
